Values joined by “and” are separate entries in the source; they are usually repeats but may differ in a detail not shown here. Identical values can stand only once. Toxic doses and inconclusive results are not listed. Rule for the calls: active = survival T/C of 150% or more; inactive = T/C below 125% in these data.
Test system: P388 leukemia ip, CD2F1 mice, survival T/C
Test: NCI In Vivo Anticancer Drug Screen. Data for tumor model P388 Leukemia (intraperitoneal) in CD2F1 (CDF1) mice
Conditions: endpoint: median survival time, higher = longer survival
In short: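 Mice carrying the transplanted tumor received test compound or vehicle. Survival was recorded in each group, and the value is the treated-group measurement divided by that of the vehicle-treated control group.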

[1] = dose: 7.5 mg/kg/injection, schedule: Q01DX009 (ip), vehicle: saline with Tween-80
[2] = dose: 50.0 mg/kg/injection, schedule: Q01DX009 (ip), vehicle: saline
[3] = dose: 100.0 mg/kg/injection, schedule: Q01DX009 (ip), vehicle: saline
[4] = dose: 200.0 mg/kg/injection, schedule: Q01DX009 (ip), vehicle: saline
[5] = dose: 50.0 mg/kg/injection, schedule: Q01DX009 (ip), vehicle: saline with Tween-80
[6] = dose: 100.0 mg/kg/injection, schedule: Q01DX009 (ip), vehicle: saline with Tween-80
[7] = dose: 200.0 mg/kg/injection, schedule: Q01DX009 (ip), vehicle: saline with Tween-80
[8] = dose: 12.5 mg/kg/injection, schedule: Q01DX009 (ip), vehicle: saline with Tween-80
[9] = dose: 25.0 mg/kg/injection, schedule: Q01DX009 (ip), vehicle: saline with Tween-80
[10] = dose: 50.0 mg/kg/injection, schedule: Q01DX005 (ip), vehicle: Klucel (hydroxypropylcellulose) (HPC)
[11] = dose: 100.0 mg/kg/injection, schedule: Q01DX005 (ip), vehicle: Klucel (hydroxypropylcellulose) (HPC)
[12] = dose: 200.0 mg/kg/injection, schedule: Q01DX005 (ip), vehicle: Klucel (hydroxypropylcellulose) (HPC)
[13] = dose: 12.5 mg/kg/injection, schedule: Q01DX009 (ip), vehicle: Klucel (hydroxypropylcellulose) (HPC)
[14] = dose: 25.0 mg/kg/injection, schedule: Q01DX009 (ip), vehicle: Klucel (hydroxypropylcellulose) (HPC)
[15] = dose: 50.0 mg/kg/injection, schedule: Q01DX005 (ip), vehicle: saline with Tween-80
[16] = dose: 100.0 mg/kg/injection, schedule: Q01DX005 (ip), vehicle: saline with Tween-80
[17] = dose: 200.0 mg/kg/injection, schedule: Q01DX005 (ip), vehicle: saline with Tween-80
[18] = dose: 60.0 mg/kg/injection, schedule: Q01DX005 (ip), vehicle: saline with Tween-80
[19] = dose: 120.0 mg/kg/injection, schedule: Q01DX005 (ip), vehicle: saline with Tween-80
[20] = dose: 240.0 mg/kg/injection, schedule: Q01DX005 (ip), vehicle: saline with Tween-80

Measured: T/C

CCCCCCCN(CCCCCCC)CC(O)c1c(OC)c2cc(Br)ccc2c2ccc(Br)cc12 (stereo unspecified)
inactive: [1] 93 % of control | dose: 15.0 mg/kg/injection, schedule: Q01DX009 (ip), vehicle: saline with Tween-80 100 % of control | dose: 30.0 mg/kg/injection, schedule: Q01DX009 (ip), vehicle: saline with Tween-80 93 % of control

O=C(O)c1c[nH]c2cc(OCCc3ccccc3)ccc2c1=O
inactive: [2] 101 % of control | [3] 107 % of control | [4] 107 % of control

CC(=O)Sc1ccccc1C(=O)NCc1ccc(Cl)cc1
inactive: [5] 117 % of control | [6] 104 % of control | [7] 120 % of control

CC=C(/C(=C/C)c1ccc(O)cc1)c1ccc(O)cc1
inactive: dose: 66.0 mg/kg/injection, schedule: Q01DX009 (ip), vehicle: saline with Tween-80 120 % of control | dose: 100.0 mg/kg/injection, schedule: Q04DX003 (ip), vehicle: saline with Tween-80 100 % of control | dose: 200.0 mg/kg/injection, schedule: Q04DX003 (ip), vehicle: saline with Tween-80 100 % of control | dose: 400.0 mg/kg/injection, schedule: Q04DX003 (ip), vehicle: saline with Tween-80 90 % of control

CC(C)N(Cc1ccccc1)CC(O)c1ccc(Cl)cc1 (stereo unspecified)
inactive: [8] 104 % of control | [9] 108 % of control | [5] 100 % of control and 108 % of control | [6] 95 % of control

COC(=O)C[N+](C)(C)Cc1ccccc1
inactive: dose: 50.0 mg/kg/injection, schedule: Q01DX009 (ip), vehicle: DMSO 97 % of control | dose: 100.0 mg/kg/injection, schedule: Q01DX009 (ip), vehicle: DMSO 99 % of control

CCOc1ccc(-c2nc3ccc(-c4nc5ccc(N6CCN(C)CC6)cc5[nH]4)cc3[nH]2)cc1
active: dose: 3.12 mg/kg/injection, schedule: Q01DX005 (ip), vehicle: water 159 % of control

CCOC(=O)N/N=C/c1ccc2c(c1)c1ccccc1n2CC
inactive: [10] 90 % of control | [11] 98 % of control | [12] 90 % of control

C#CCOC(=O)Nc1nc2ccc(C)cc2s1
inactive: dose: 6.25 mg/kg/injection, schedule: Q01DX009 (ip), vehicle: Klucel (hydroxypropylcellulose) (HPC) 107 % of control | [13] 104 % of control | [14] 101 % of control

O=c1[nH]c(=O)n(C2OC(CCl)C(O)C2O)cc1F (stereo unspecified)
inactive: dose: 30.0 mg/kg/injection, schedule: Q04DX002 (ip), vehicle: saline 99 % of control | dose: 43.0 mg/kg/injection, schedule: Q04DX002 (ip), vehicle: water 104 % of control | dose: 60.0 mg/kg/injection, schedule: Q04DX002 (ip), vehicle: saline 102 % of control | dose: 86.0 mg/kg/injection, schedule: Q04DX002 (ip), vehicle: water 106 % of control | dose: 120.0 mg/kg/injection, schedule: Q04DX002 (ip), vehicle: saline 116 % of control | dose: 172.0 mg/kg/injection, schedule: Q04DX002 (ip), vehicle: water 113 % of control | dose: 240.0 mg/kg/injection, schedule: Q04DX002 (ip), vehicle: saline 109 % of control | dose: 344.0 mg/kg/injection, schedule: Q04DX002 (ip), vehicle: water 113 % of control

O=C1CN(c2cccc(Cl)c2)C(=O)CN1/N=C/c1ccccn1
inactive: [15] 100 % of control | [16] 106 % of control | [17] 100 % of control

CC(NC1=NCCO1)c1cccc2ccccc12 (stereo unspecified)
inactive: dose: 12.5 mg/kg/injection, schedule: Q04DX003 (ip), vehicle: saline with Tween-80 100 % of control | dose: 25.0 mg/kg/injection, schedule: Q04DX003 (ip), vehicle: saline with Tween-80 95 % of control | dose: 50.0 mg/kg/injection, schedule: Q04DX003 (ip), vehicle: saline with Tween-80 100 % of control

COc1cc(OC)c(OC)cc1/C=C\c1ccc2ccccc2[n+]1C
inactive: dose: 3.12 mg/kg/injection, schedule: Q01DX009 (ip), vehicle: saline with Tween-80 105 % of control | dose: 6.25 mg/kg/injection, schedule: Q01DX009 (ip), vehicle: saline with Tween-80 110 % of control | [8] 111 % of control and 122 % of control | [9] 123 % of control

O=C(O)C(c1ccccc1)C1CCCCC1C1CCCCC1 (stereo unspecified)
inactive: dose: 12.5 mg/kg/injection, schedule: Q01DX005 (ip), vehicle: saline with Tween-80 98 % of control | dose: 25.0 mg/kg/injection, schedule: Q01DX005 (ip), vehicle: saline with Tween-80 95 % of control | [15] 100 % of control and 93 % of control

COc1cc(OC)c(Cc2cc3c(cc2OC)OCO3)c(OC)c1
inactive: [18] 91 % of control | [19] 87 % of control | [20] 87 % of control

COc1ccc(CCN)cc1OC
inactive: [5] 100 % of control | [6] 100 % of control | [3] 108 % of control | [7] 100 % of control | [4] 106 % of control

CCCCCCC(=O)/C=C/c1ccc(OC(=O)c2ccc([N+](=O)[O-])cc2)cc1
inactive: dose: 12.5 mg/kg/injection, schedule: Q01DX009 (ip), vehicle: saline 105 % of control | dose: 25.0 mg/kg/injection, schedule: Q01DX009 (ip), vehicle: saline 100 % of control | [2] 103 % of control and 97 % of control | [3] 92 % of control | [4] 92 % of control

COC1=CC2(CCN(C)C(=O)C(F)(F)F)C(=CC1=O)CCc1ccc(OC)c(O)c12 (stereo unspecified)
inactive: dose: 100.0 mg/kg/injection, schedule: Q04DX002 (ip), vehicle: saline with Tween-80 101 % of control | dose: 200.0 mg/kg/injection, schedule: Q04DX002 (ip), vehicle: saline with Tween-80 100 % of control | dose: 400.0 mg/kg/injection, schedule: Q04DX002 (ip), vehicle: saline with Tween-80 93 % of control

ClC(=Nc1ccccc1)c1ccccn1
inactive: [13] 101 % of control | [14] 101 % of control | dose: 50.0 mg/kg/injection, schedule: Q01DX009 (ip), vehicle: Klucel (hydroxypropylcellulose) (HPC) 96 % of control

CC(=O)C(C)C(C)=NCCN=C(C)C(C)C(C)=O (stereo unspecified)
inactive: [10] 110 % of control | [11] 110 % of control | [12] 103 % of control

CN(C)c1ccc(P(=O)(O)O)cc1
inactive: [15] 96 % of control | [16] 99 % of control | [17] 91 % of control

Fc1c(F)c(F)c(SN=S=Nc2ccccc2)c(F)c1F
inactive: [10] 106 % of control | [11] 108 % of control

CC(=O)OC1(OC(C)=O)C=C2OCOC2=CC1=O
inactive: dose: 8.75 mg/kg/injection, schedule: Q01DX005 (ip), vehicle: Klucel (hydroxypropylcellulose) (HPC) 91 % of control | dose: 17.5 mg/kg/injection, schedule: Q01DX005 (ip), vehicle: Klucel (hydroxypropylcellulose) (HPC) 103 % of control

CC(=O)N1OCCc2ccccc21
inactive: [18] 100 % of control | [19] 98 % of control | [20] 98 % of control

COC(=O)CC(=O)C(C)SC (stereo unspecified)
inactive: [9] 100 % of control | [5] 109 % of control | [6] 97 % of control

COC(=O)c1ccccc1N=NN(C)CC1OC2OC(C)(C)OC2C1OC (stereo unspecified)
inactive: dose: 100.0 mg/kg/injection, schedule: Q01DX001 (ip), vehicle: saline with Tween-80 99 % of control | dose: 200.0 mg/kg/injection, schedule: Q01DX001 (ip), vehicle: saline with Tween-80 99 % of control | dose: 400.0 mg/kg/injection, schedule: Q01DX001 (ip), vehicle: saline with Tween-80 97 % of control

ClC1=CC(Cl)=C2N=C(N3CCCC3)N=C3N=C(N4CCCC4)N=C1N32
inactive: dose: 50.0 mg/kg/injection, schedule: Q01DX005 (ip), vehicle: Klucel + Tween-80 93 % of control | dose: 100.0 mg/kg/injection, schedule: Q01DX005 (ip), vehicle: Klucel + Tween-80 93 % of control | dose: 200.0 mg/kg/injection, schedule: Q01DX005 (ip), vehicle: Klucel + Tween-80 90 % of control

O=[N+]([O-])c1cn(CCNc2c3ccccc3nc3ccccc23)cn1
inactive: [18] 112 % of control

CCOC(=O)CNC(=O)/C=C\C(=O)NC(=O)OCC
inactive: dose: 3.7 mg/kg/injection, schedule: Q01DX009 (ip), vehicle: saline with Tween-80 110 % of control | [1] 107 % of control

From PubChem BioAssay AID330 (DTP/NCI, 2004)
